Results filed as inconclusive are left out.
Tested on: LOX IMVI melanoma, caspase 3/7 luminescence, apoptosis
Assay: caspase 3/7 activation in LOX IMVI melanoma cells, dose response, mechanism study for HRAS target identification, cell-based, luminescence, multiple timepoints, dry powder (AID 652072)
Conditions: measured here: caspase 3/7, timepoint 3

## CCC(=O)N(c1ccc(OC)c(Cl)c1)C(C(=O)NCCc1ccccc1)c1cccs1 (stereo unspecified)
  AC40: > 35 µM

From PubChem BioAssay AID652072 (Broad Institute, 2013)
